The results in this text go back to US7276347B2 (priority 2004, dated 2007).

The test system of assay [1] is antibodies to HCY Oxime-BTG (example 4a). The class given is binding, mice.
Assay [2] deals with monoclonal antibody to HCY Oxime-KLH (example 4b). The class given is binding, mice.

`O=C(O)CCCc1ccc(N(CCCl)CCCl)cc1` [Chlorambucil, chlorambucil]: the “% Cross-Reactivity” value in assay [1] is less than 0.3%; in assay [2] it was less than 0.1%. The “IC 50” value is >10,000 ng/ml in assay [1] and >100,000 ng/ml in assay [2].
The corresponding values for `N[C@@H](Cc1ccc(N(CCCl)CCCl)cc1)C(=O)O` [Melphalan, melphalan] are less than 0.3%, less than 0.1%, >10,000 ng/ml and >100,000 ng/ml.
The corresponding values for `O=P1(N(CCCl)CCCl)NCCCO1` (stereo not drawn) [cyclophosphamide] are less than 0.3%, less than 0.1%, >10,000 ng/ml and >100,000 ng/ml.
